From ChEMBL document CHEMBL4418282, “Compounds and methods for inhibiting fascin” (2017)

Legend:
Fascin (Homo sapiens) = Fascin (Homo sapiens) (UniProt Q16658); assay: Inhibition of purified fascin (unknown origin) assessed as reduction in bundle activity at 50 uM pre-incubated for 30 mins before polymerized actin addition and followed by Alexa fluro 488 phalloidin addition after 30 mins and measured after 1 hr under dark condition relative to control
4T1 = assay: Antitumor activity against mouse 4T1 cells implanted in Balb/c mouse assessed as reduction in tumor growth in lungs at 100 mg/kg, administered daily for 2 weeks starting 7 days after tumor implantation and measured on day 28 by methylene blue staining based assay relative to control; assay type: functional; details: read-out: TGI

| Structure (SMILES) | inhibition (Fascin (Homo sapiens)) [%] | inhibition in vivo at 100 mg/kg (4T1) [%] |
| --- | --- | --- |
| FC(F)(F)c1ccc(Cn2nc(Br)c3ccccc32)cc1 | < 10 | – |
| Cc1ncsc1C(=O)Nc1nn(Cc2ccc(C(F)(F)F)cc2)c2ccccc12 | – | > 90 |
| Cc1ccc(-c2ccc(C(=O)Nc3nn(Cc4ccc(C(F)(F)F)cc4)c4ccccc34)o2)cc1 | < 10 | – |
| CCCC(=O)Nc1nn(Cc2ccc(C(F)(F)F)cc2)c2cncc(Cl)c12 | < 10 | – |
| CC(=O)Nc1nn(Cc2ccc(C(F)(F)F)cc2)c2cncc(Cl)c12 | < 10 | – |
| O=C(Nc1nn(Cc2ccc(C(F)(F)F)cc2)c2ccccc12)c1ccc(Cl)cc1 | < 10 | – |
| O=[N+]([O-])c1cn(Cc2ccccc2)c2ccc(Br)cc12 | < 10 | – |
| CNc1nn(Cc2ccc(C(F)(F)F)cc2)c2cncc(Cl)c12 | < 10 | – |
| FC(F)(F)c1ccc(Cn2nc(-c3ccoc3)c3ccccc32)cc1 | < 10 | – |
| Cc1ncsc1C(=O)Nc1nn(Cc2ccc(C#N)cc2)c2ccccc12 | < 10 | – |
| O=[N+]([O-])c1cn(Cc2ccc(C(F)(F)F)cc2)c2ccc(Br)cc12 | < 10 | – |
| FC(F)(F)c1ccc(Cn2nc(-c3cccc4ccccc34)c3ccccc32)cc1 | < 10 | – |
| FC(F)(F)c1ccc(Cn2nc(-c3ccccc3)c3ccccc32)cc1 | < 10 | – |
| Cc1nocc1C(=O)Nc1nn(Cc2ccc(C(F)(F)F)cc2)c2cncc(Cl)c12 | < 10 | – |
| Cc1occc1C(=O)Nc1nn(Cc2ccc(C(F)(F)F)cc2)c2cncc(Cl)c12 | < 10 | – |
| Cc1occc1-c1nn(Cc2ccc(C(F)(F)F)cc2)c2ccccc12 | < 10 | – |
| Cc1occc1C(=O)Nc1nn(Cc2ccc(C(F)(F)F)cc2)c2ccccc12 [NP-G2-044] | – | > 90 |
| Cc1ccc(-c2nn(Cc3ccc(C(F)(F)F)cc3)c3ccccc23)o1 | < 10 | – |
| N#Cc1ccccc1C(=O)Cc1nn(Cc2ccc(C(F)(F)F)cc2)c2ccccc12 | < 10 | – |
| O=C(Nc1nn(Cc2ccc(C(F)(F)F)cc2)c2cncc(Cl)c12)c1ccoc1 | < 10 | – |
| O=C(Nc1nn(Cc2ccc(C(F)(F)F)cc2)c2ccccc12)c1cccc(Cl)c1 | < 10 | – |
